Experimental data from ChEMBL document CHEMBL2401721, “BACE1 inhibitors: a head group scan on a series of amides” (Bioorg Med Chem Lett, 2013).

Key:
[1] = Dissociation constant, pKa of the compound by capillary electrophoresis; type: physicochemical
[2] = Drug uptake in wild-type C57Bl/6J mouse brain at 30 mg/kg, po after 4 hrs; type: ADME, organism-based; set-up: dose 30 mg/kg, route oral; settings: read-out: Drug uptake
[3] = Plasma concentration in wild-type C57Bl/6J mouse at 30 mg/kg, po after 4 hrs; type: ADME, organism-based; set-up: dose 30 mg/kg, route oral
[4] = Ratio of drug level in brain to plasma in wild-type C57Bl/6J mouse at 30 mg/kg, po after 4 hrs; type: ADME, organism-based; set-up: dose 30 mg/kg, route oral; settings: read-out: BPR

Row | pKa [1] | concentration at 4 h [2] [ng/g] | concentration at 4 h [3] [µg/mL] | Kp at 4 h [4] | SMILES
1 | 7.3 | – | – | – | CN1C(=O)C(C)(c2cccc(NC(=O)c3ccc(Cl)cn3)c2)N=C1N (centres undefined)
2 | > 11 | < 13 | < 0.003 | – | CN1CC[C@@](C)(c2cc(NC(=O)c3ccc(Cl)cn3)ccc2F)N=C1N
3 | > 11 | 8 | 0.081 | 0.1 | C[C@@]1(c2cc(NC(=O)c3ccc(Cl)cn3)ccc2F)CCC2(CC2)C(N)=N1
4 | 10.4 | – | – | – | C[C@@]1(c2cc(NC(=O)c3ccc(Cl)cn3)ccc2F)CCCOC(N)=N1

Continued, compound first:

Row | SMILES | pKa [1] | concentration at 4 h [2] [ng/g] | concentration at 4 h [3] [µg/mL] | Kp at 4 h [4]
5 | C[C@@]1(c2cccc(NC(=O)c3ccc(Cl)cn3)c2)COC(N)=N1 | 8.3 | – | – | –
6 | CC1(c2cccc(NC(=O)c3ccccn3)c2)CSC(N)=N1 (centres undefined) | 8.3 | – | – | –
7 | C[C@]1(c2cccc(NC(=O)c3ccc(Cl)cn3)c2)N=C(N)c2ccccc21 | 9.7 | – | – | –
8 | NC1=NC2(CCc3ccc(NC(=O)c4ccc(Cl)cn4)cc32)CO1 (centres undefined) | 8.3 | – | – | –
9 | NC1=NC2(CCc3ccc(NC(=O)c4ccc(Cl)cn4)cc32)CS1 (centres undefined) | 8.3 | – | – | –
